The results in this text go back to patent US7691841B2, “Azetidine derivatives as CCR-3 receptor antagonist” (Novartis AG, priority 2004, dated 2010).

The target in this assay is T1, human CCR-3 (Homo sapiens, UniProt P51677).
T1 construct: expressed in transfected cells; host or cells: rat basophil leukaemia (RBL-2H3) cells, membranes
T1 sequence (P51677 1-355): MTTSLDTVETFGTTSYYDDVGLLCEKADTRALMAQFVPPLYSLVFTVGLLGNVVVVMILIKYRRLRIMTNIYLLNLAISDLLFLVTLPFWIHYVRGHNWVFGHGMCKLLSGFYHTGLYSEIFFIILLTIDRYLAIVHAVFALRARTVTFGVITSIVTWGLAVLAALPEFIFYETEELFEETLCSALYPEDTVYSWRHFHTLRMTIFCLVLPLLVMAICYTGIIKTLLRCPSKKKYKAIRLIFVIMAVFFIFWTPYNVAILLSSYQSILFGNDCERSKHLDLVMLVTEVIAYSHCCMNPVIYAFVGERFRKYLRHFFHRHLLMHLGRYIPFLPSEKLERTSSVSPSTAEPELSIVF
The experiment in a line: binding of [125I]-human eotaxin to human CCR-3 (SPA assay). To be noted: membranes of RBL-2H3 cells stably expressing CCR3; 50 pM [125I]-human eotaxin; 4 hours at room temperature; read-out: IC50 (concentration of test compound at which 50% inhibition of eotaxin binding occurs). How it is done:
Compounds of formula I and their pharmaceutically acceptable salts are useful as pharmaceuticals. In particular, they inhibit human chemokine receptor CCR-3. The effect of compounds of the formula I, i.e. agents of the invention, on the binding of human eotaxin to human CCR-3 is determined by the following assay:
Recombinant cells expressing human CCR-3 are captured by wheatgerm agglutinin (WGA) polyvinyltoluidene (PVT) SPA beads (available from Marshal), through a specific interaction between the WGA and carbohydrate residues of glycoproteins on the surface of the cells. [^125I]-human eotaxin (available from Amersham) binds specifically to CCR-3 receptors bringing the [^125I]-human eotaxin in close proximity to the SPA beads. Emitted â-particles from the [^125I]-human eotaxin excite, by its proximity, the fluorophore in the beads and produce light.
Preparation of Assay Buffer: 5.96 g HEPES and 7.0 g sodium chloride are dissolved in distilled water and 1 M aqueous CaCl2 (1 ml) and 1M aqueous MgCl2 (5 ml) are added. The pH is adjusted to 7.6 with NaOH and the solution made to a final volume of 1 l using distilled water. 5 g bovine serum albumin and 0.1 g sodium azide are then dissolved in the solution and the resulting buffer stored at 4° C. A COMPLETE™ protease inhibitor cocktail tablet (available from Boehringer) is added per 50 ml of the buffer on the day of use.
Preparation of Homogenisation Buffer: Tris-base (2.42 g) is dissolved in distilled water, the pH of the solution is adjusted to 7.6 with hydrochloric acid and the solution is diluted with distilled water to a final volume of 1 l. The resulting buffer is stored at 4° C. A COMPLETE™ protease inhibitor cocktail tablet is added per 50 ml of the buffer on the day of use. […]
The assay is performed in a final volume of 250 μl per well of an OPTIPLATE™ microplate (ex Canberra Packard). […] The resulting scintillations are counted using a Canberra Packard TopCount, each well being counted for 1 minute. […]
With `O=C(CNC(=O)c1ccc(Cl)cc1)NCC1CN(Cc2ccc(Cl)c(Cl)c2)C1` [Example 5], the IC50 amounted to 297 nM.
Under `Cc1cc(C(=O)NCC(=O)NCC2CN(Cc3ccc(Cl)c(Cl)c3)C2)c(C)n1Cc1ccncc1` [Example 7] stands 420 nM.
Under `CCOc1ccc2nc(SCC(=O)NCC3CN(Cc4ccc(Cl)c(Cl)c4)C3)sc2c1` [Example 8, N-[1-(3,4-Dichloro-benzyl)-azetidin-3-yl-methyl]-2-(6-ethoxy-benzothiazol-2-ylsulfanyl)-acetamide] stands 198 nM.
